The experiment deals with cultured human mast cells (CHMC), IgE-induced degranulation. In words: CHMC low cell density IgE activation: tryptase assay. The format is cell-based. The protocol:
Inhibition of degranulation was measured at both low and high cell density by quantifying the release of the granule specific factors tryptase, histamine and hexosaminidase. Inhibition of release and/or synthesis of lipid mediators was assessed by measuring the release of leukotriene LTC4 and inhibition of release and/or synthesis of cytokines was monitored by quantifying TNF-α, IL-6 and IL-13. Tryptase and hexosaminidase were quantified using fluorogenic substrates as described in their respective examples. […] The protocols of the various assays are provided below.
A second phase is performed to convert the expanded CD34-negative progenitor cells into differentiated mucosal mast cells. These mucosal cultured human mast cells (“CHMC”) are derived from CD34+ cells isolated from umbilical cord blood and treated to form a proliferated population of CD34-negative progenitor cells, as described above. […] Also, the cytokine composition of the medium was modified such that it contained SCF (200 ng/mL) and recombinant human IL-6 (200 ng/mL; Peprotech, Catalog No. 200-06 reconstituted to 100 ug/mL in sterile 10 mM acetic acid) (“CM/SCF/IL-6 medium”).
Pellet CHMC cells (980 rpm, 10 min) and resuspend in pre-warmed MT. Add 65 ul of cells to each 96-well plate. Depending on the degranulation activity for each particular CHMC donor, load 1000-1500 cells/well. Mix four times followed by a 1 hr incubation at 37° C. […] Stimulate cells by adding 25 ul of 6× anti-IgE solution to the appropriate plates. Add 25 ul MT to un-stimulated control wells. Mix twice following addition of the anti-IgE. Incubate at 37° C. for 30 minutes. […] Spin plates at 1000 rpm for 10 min to pellet cells. Transfer 25 ul of supernatant to a 96-well black bottom plate and add 100 ul of freshly diluted tryptase substrate solution to each well. Incubate plates at room temperature for 30 min.
In Table 1, all reported values are IC50s (in μM). […] In Table 1, all reported values are IC50s (in μM).

Where [1] appears, read: CHMC low cell density, 3pt, read-out: LD Tryptase, CHMC, IgE, 3pt.
Where [2] appears, read: CHMC low cell density, 8pt, read-out: LD Tryptase, CHMC, IgE, 8pt.

Structures can show the parent of a compound that is named as a salt. Where two headings read alike, the source gives them in different places.

For the compound `C[C@@H]1Oc2ccc(Nc3nc(Nc4ccc5c(cnn5CCCN5C(=O)CCC5=O)c4)ncc3F)cc2NC1=O` [Compound 856, (S)-5-Fluoro-N4-(2-methyl-3-oxo-2H,4H-benz[1,4]oxazin-6-yl)-N2-[1-[3-(N-succinimidopropyl)]indazol-5-yl]-2,4-pyrimidinediamine], the IC50 under setting [1] is below 10 µM and the IC50 under setting [2] is below 10 µM.

On to `CC1(C)Oc2ccc(Nc3nc(Nc4ccc5c(cnn5CCCN5C(=O)CCC5=O)c4)ncc3F)nc2NC1=O` [Compound 857, N4-(2,2-Dimethyl-3-oxo-4H-5-pyrid[1,4]oxazin-6-yl)-5-fluoro-N2-[1-[3-(N-succinimidopropyl)]indazol-5-yl]-2,4-pyrimidinediamine], for which the IC50 under setting [1] was below 10 µM and the IC50 under setting [2] was below 10 µM.

`CC1(C)Oc2ccc(Nc3nc(Nc4ccc5c(cnn5CCCN5C(=O)CCCC5=O)c4)ncc3F)nc2NC1=O` [Compound 862, N4-(2,2-Dimethyl-3-oxo-4H-5-pyrid[1,4]oxazin-6-yl)-N2-[1-[3-(2,6-dioxopiperidino]propyl)indazol-5-yl]-5-fluoro-2,4-pyrimidinediamine]: the IC50 was below 10 µM under setting [1] and below 10 µM under setting [2].

On to `CCOCCCn1ncc2cc(Nc3ncc(F)c(Nc4ccc5c(n4)NC(=O)C(C)(C)O5)n3)ccc21` [Compound 875, N4-(2,2-Dimethyl-3-oxo-4H-5-pyrid[1,4]oxazin-6-yl)-N2-[1-(3-ethoxypropyl)indazol-5-yl]-5-fluoro-2,4-pyrimidinediamine], for which the IC50 is, setting by setting: under setting [1], below 10 µM; under setting [2], below 10 µM.

For `Cn1c(=O)[nH]c2cc(Nc3ncc(F)c(Nc4ccc5c(n4)NC(=O)C(C)(C)O5)n3)ccc21` [Compound 908, N4-(2,2-Dimethyl-3-oxo-4H-5-pyrid[1,4]oxazin-6-yl)-N2-(2,3-dihydro-1-methyl-2-oxo-benzimidazol-5-yl)-5-fluoro-2,4-pyrimidinediamine], the IC50 runs as follows: under setting [1], below 10 µM; under setting [2], below 10 µM.

For the compound `CC1(C)Oc2ccc(Nc3nc(Nc4ccc5oncc5c4)ncc3F)nc2NC1=O` [Compound 928, N2-(1,2-Benzisoxazol-5-yl)-N4-(2,2-dimethyl-3-oxo-4H-5-pyrido[1,4]oxazin-6-yl)-5-fluoro-2,4-pyrimidinediamine], the IC50 under setting [2] was below 10 µM.

Turning to `CCn1c(C)nc2cc(Nc3ncc(F)c(Nc4ccc5c(n4)NC(=O)C(C)(C)O5)n3)ccc21` [Compound 936, N4-(2,2-Dimethyl-3-oxo-4H-5-pyrido[1,4]oxazin-6-yl)-N2-(1-ethyl-2-methylbenzimidazol-5-yl)-5-fluoro-2,4-pyrimidinediamine], the IC50 under setting [1] was below 10 µM.

Regarding `CC1(C)Oc2ccc(Nc3nc(Nc4ccc5c(c4)nc(C(F)(F)F)n5CCCO)ncc3F)nc2NC1=O` [Compound 941, N4-(2,2-Dimethyl-3-oxo-4H-5-pyrido[1,4]oxazin-6-yl)-5-fluoro-N2-[1-(3-hydroxypropyl)-2-trifluoromethylbenzimidazol-5-yl]-2,4-pyrimidinediamine], the IC50 under setting [1] was below 10 µM and the IC50 under setting [2] was below 10 µM.

In the case of `C[C@@H]1Oc2ccc(Nc3nc(Nc4ccc5c(c4)nc(N4CCOCC4)n5C)ncc3F)cc2NC1=O` [Compound 945, (S)-5-Fluoro-N2-[1-methyl-2-(4-morpholino)benzimidazol-5-yl]-N4-(2-methyl-3-oxo-2H,4H-benz[1,4]oxazin-6-yl)-2,4-pyrimidinediamine], the IC50 reads like this: under setting [1], below 10 µM; under setting [2], below 10 µM.

For `Cn1c(N2CCOCC2)nc2cc(Nc3ncc(F)c(Nc4ccc5c(n4)NC(=O)C(C)(C)O5)n3)ccc21` [Compound 946, N4-(2,2-Dimethyl-3-oxo-4H-5-pyrido[1,4]oxazin-6-yl)-5-fluoro-N2-[1-methyl-2-(4-morpholino)benzimidazol-5-yl]-2,4-pyrimidinediamine], the IC50 by setting is: under setting [1], below 10 µM; under setting [2], below 10 µM.

Take `Cc1nc2cc(Nc3ncc(F)c(Nc4ccc5c(n4)NC(=O)C(C)(C)O5)n3)ccc2n1CCCO` [Compound 951, N4-(2,2-Dimethyl-3-oxo-4H-5-pyrido[1,4]oxazin-6-yl)-5-fluoro-N2-[1-(3-hydroxypropyl)-2-methylbenzimidazol-5-yl]-2,4-pyrimidinediamine]: the IC50 is below 10 µM under setting [1] and below 10 µM under setting [2].

Turning to `CC(=O)NCCCn1c(C)nc2cc(Nc3ncc(F)c(Nc4ccc5c(n4)NC(=O)C(C)(C)O5)n3)ccc21` [Compound 953, N2-[1-[3-(N-Acetylamino)propyl]-2-methylbenzimidazol-5-yl]-N4-(2,2-Dimethyl-3-oxo-4H-5-pyrido[1,4]oxazin-6-yl)-5-fluoro-2,4-pyrimidinediamine], the IC50 under setting [1] was below 10 µM and the IC50 under setting [2] was below 10 µM.

`Cn1c(CN2CCOCC2)nc2cc(Nc3ncc(F)c(Nc4ccc5c(c4)NC(=O)C(C)(C)O5)n3)ccc21` [Compound 956, N4-(2,2-Dimethyl-3-oxo-4H-benz[1,4]oxazin-6-yl)-5-fluoro-N2-[1-methyl-2-(4-morpholinomethyl)benzimidazol-5-yl]-2,4-pyrimidinediamine]: under setting [2], the IC50 is below 10 µM.

Consider `C[C@@H]1Oc2ccc(Nc3nc(Nc4ccc5c(c4)nc(CN4CCOCC4)n5C)ncc3F)cc2NC1=O` [Compound 957, (S)-5-Fluoro-N2-[1-methyl-2-(4-morpholinomethyl)benzimidazol-5-yl]-N4-(2-methyl-3-oxo-2H,4H-benz[1,4]oxazin-6-yl)--2,4-pyrimidinediamine], for which the IC50 is, setting by setting: under setting [1], below 10 µM; under setting [2], below 10 µM.

With `Cn1c(CN2CCOCC2)nc2cc(Nc3ncc(F)c(Nc4ccc5c(n4)NC(=O)C(C)(C)O5)n3)ccc21` [Compound 958, N4-(2,2-Dimethyl-3-oxo-4H-5-pyrido[1,4]oxazin-6-yl)-5-fluoro-N2-[1-methyl-2-(4-morpholinomethyl)benzimidazol-5-yl]-2,4-pyrimidinediamine], the IC50 under setting [2] was below 10 µM.

With `Cc1nc2cc(Nc3ncc(F)c(Nc4ccc5c(n4)NC(=O)C(C)(C)O5)n3)ccc2n1CCCNS(C)(=O)=O` [Compound 964, N4-(2,2-Dimethyl-3-oxo-4H-5-pyrido[1,4]oxazin-6-yl)-5-fluoro-N2-[2-methyl-1-[3-(N-methylsulfonylamino)propyl]benzimidazol-5-yl]-2,4-pyrimidinediamine], the IC50 under setting [1] is below 10 µM and the IC50 under setting [2] was below 10 µM.

Turning to `Cn1c(CS(C)(=O)=O)nc2cc(Nc3ncc(F)c(Nc4ccc5c(n4)NC(=O)C(C)(C)O5)n3)ccc21` [Compound 969, N4-(2,2-Dimethyl-3-oxo-4H-5-pyrido[1,4]oxazin-6-yl)-5-fluoro-N2-{1-methyl-2-[(methylsulfonyl)methyl]benzimidazol-5-yl}-2,4-pyrimidinediamine], the IC50 is below 10 µM under setting [1] and below 10 µM under setting [2].

Take `CCN(CC)Cc1nc2cc(Nc3ncc(F)c(Nc4ccc5c(n4)NC(=O)C(C)(C)O5)n3)ccc2n1C` [Compound 974, N2-[2-(N,N-Diethylaminomethyl)-1-methylbenzimidazol-5-yl]-N4-(2,2-dimethyl-3-oxo-4H-5-pyrido[1,4]oxazin-6-yl)-5-fluoro-2,4-pyrimidinediamine]: the IC50 by setting is: under setting [1], below 10 µM; under setting [2], below 10 µM.

As to `CNC(=O)COc1cccc(Nc2ncc(F)c(Nc3ccc4c(n3)NC(=O)C(C)(C)O4)n2)c1` [Compound 986, N4-(2,2-Dimethyl-3-oxo-4H-5-pyrid[1,4]oxazin-6-yl)-5-fluoro-N2-[3-(N-methylamino)carbonylmethyleneoxyphenyl]-2,4-pyrimidinediamine Hydrogen Chloride Salt], the IC50 under setting [1] was below 10 µM and the IC50 under setting [2] is below 10 µM.

Regarding `COc1c(C)cc(Nc2ncc(F)c(Nc3ccc4c(c3)NCC(C)(C)O4)n2)cc1Cl` [Compound 1001, N2-(3-Chloro-4-methoxy-5-methylphenyl)-N4-(3,4-dihydro-2,2-dimethyl-4H-benz[1,4]oxazin-6-yl)-5-fluoro-2,4-pyrimidinediamine], under setting [2], the IC50 was below 10 µM.

For `COc1cc(Nc2ncc(F)c(Nc3ccc4c(c3)NCC(C)(C)O4)n2)cc(OC)c1` [Compound 1002, N4-(3,4-Dihydro-2,2-dimethyl-4H-benz[1,4]oxazin-6-yl)-N2-(3,5-dimethoxyphenyl)-5-fluoro-2,4-pyrimidinediamine], the IC50 under setting [2] is below 10 µM.

Consider `CC(C)c1cccc(Nc2ncc(F)c(Nc3ccc4c(n3)NC(=O)C(C)(C)O4)n2)c1` [Compound 1003, N4-(2,2-Dimethyl-3-oxo-4H-5-pyrid[1,4]oxazin-6-yl)-5-fluoro-N2-(3-isopropylphenyl)-2,4-pyrimidinediamine], for which the IC50 is below 10 µM under setting [1] and below 10 µM under setting [2].

Turning to `CC1(C)Oc2ccc(Nc3nc(Nc4ccc(-c5ncco5)cc4)ncc3F)nc2NC1=O` [Compound 1035, N4-(2,2-Dimethyl-3-oxo-4H-5-pyrid[1,4]oxazin-6-yl)-5-fluoro-N2-[4-(oxazol-2-yl)phenyl]-2,4-pyrimidinediamine], the IC50 (low cell density CHMC, 8-point, read-out: LD Tryptase, CHMC, IgE, 8pt) is above 10 µM.

(Values after US7560466B2, “Methods of treating or preventing autoimmune diseases with 2,4-pyrimidinediamine compounds” (Rigel Pharmaceuticals, Inc., priority 2003, dated 2009).)
